Measured values reported in patent publication US20090304712A1, “Neuronal Cell Death Inhibitor and Screening Method” (NATIONAL UNIVERSITY CORPORATION NAGOYA UNIVERSITY, priority 2006, published 2009).

How the values were obtained:
activated microglia = test: Glutamate concentration in neuron culture medium (glutamate released from activated microglia), colorimetric assay; format: cell-based, mouse; settings: 24 h; for extracellular glutamate concentration: versus no drug (TNF)
Method: (§1) Mouse primary microglia were isolated from primary mixed glial cell cultures (obtained from newborn C57BL/6J mice brains) by the ‘shaking off’ method on the 14th culture day or later (Suzumura, A. et al. MHC antigen expression on bulk isolated macrophage-microglia from newborn mouse brain: induction of 1a antigen expression by gamma-interferon. J. Neuroimmunol. 15, 263-278 (1987)).
(§2) Microglia were cultured with the culture medium (approximately 5×10^4 cells/well, Neuron Medium (manufactured by Sumitomo Bakelite Co., LTD.) administered with 1 μg/ml of LPS or 100 ng/ml of cytokines (IL-1β, IL-6, IL-10, IFN-γ, or TNF-α), respectively. Microglia were incubated under 100% humidity and 5% CO2 at 37° C. for 24 hours. Note that as a control, microglia were cultured similarly except that no cytokine was added.
Neurons in a 24-well plate (5×10^4 cells/well) were incubated with 500 μl of conditioned medium of microglia activated as above. Neurons were administered similarly non-activated microglia conditioned medium to serve as a control for the indirect stimulation group. […]
In the present example, the amount of glutamate released from microglia stimulated with various cytokines, intracellular ATP concentration and mitochondrial damage in neurons incubated with conditioned medium were measured. […]
After incubation for 24 hours as above, the concentration of glutamate in the conditioned medium of each neuronal culture well was measured using Glutamate Assay Kit colorimetric assay (manufactured by Yamasa Corporation) according to the protocol thereof, measuring the absorption at 600 nm in a multiplate reader. […]
The various neurons prepared as above were cultured for 24 hours, then, glutamate concentration, the numbers of neurons with neuritic beading degeneration and dead neurons were measured for neurons in each neuronal culture well. Quantification of glutamate concentration was carried out similarly to Example 2, measurements of the numbers of neurons with neuritic beading degeneration and dead neurons were carried out similarly to Example 1. […]

[1] = test system: experimental autoimmune encephalomyelitis (EAE) model; test: MOG-induced experimental autoimmune encephalomyelitis (EAE) model; format: in vivo, C57BL/6J mice; settings: for EAE onset day (EAE clinical score becomes 1 or greater) / number of severe sick days (EAE clinical score four or greater): p<0.05
[2] = test system: ischemia-induced delayed neuronal cell death model; test: Ischemia-induced delayed neuronal cell death model; format: in vivo, Mongolian gerbils; settings: for delayed neuronal cell death (micrographs of hippocampal CA1, FIG. 15) / number of surviving neurons per 100 μm in the hippocampal CA1 region: 7 days after ischemia; for number of surviving neurons per 100 μm in the hippocampal CA1 region: p<0.001 versus control
Method: In the present example, the effect of gap junction inhibitor and glutaminase inhibitor on neuronal cell death was evaluated using ischemia-induced delayed neuronal cell death model. Note that all protocols were approved by the Animal Experiment Committee of Nagoya University. Note that the animal model in the present example corresponds to a model of ischemic disorder, which is a nervous system disease.
According to reference by Imai et al. (Imai F, Sawada M, Suzuki H, Zlokovic B V, Kojima J, Kuno S, Nagatsu T, Nitatori T, Uchiyama Y, Kanno T., Exogenous microglia enter the brain and migrate into ischemic hippocampal lesions. et al. Neuroscience Letter. 272 (2): 127-130. 1999)□ adult male Mongolian gerbils, 10-12 weeks old and weighing approximately 70 g, were anesthetized with sevoflurane maintaining rectal temperature at 37° C. Global forebrain ischemia was produced transiently by occluding both common carotid arteries for 5 minutes using aneurysm clips.
Administration of the gap junction inhibitor carbenoxolone (CBX) was carried out in the following three groups. That is to say, the doses were 20 mg/kg body weight (CBX1), 2 mg/kg body weight (CBX1/10) and 0.2 mg/kg body weight (CBX1/100). Administration of the glutaminase inhibitor 6-diazo-5-oxo-L norleucine (DON) was carried out in the following three groups. That is to say, the doses were 1.6 mg/kg body weight (DON1), 0.16 mg/kg body weight (DON1/10) and 0.016 mg/kg body weight (DON1/100). CBX or DON was administered intraperitoneally every other day from the day of ischemia. Note that control animals were injected with the equal volume of phosphate-buffered saline (PBS).
Seven days after ischemia, gerbils were anesthetized and transcardically perfused with 4% paraformaldehyde in PBS. The brains were removed, embedded in O.C.T. compound (manufactured by Sakura Finetech) and then frozen in liquid nitrogen. Frozen sections were prepared with a cryostat (8 μm thick), were mounted onto a slide glass and were stained with haematoxylin and eosin. To assess the effect of drug treatment on delayed neuronal death, the number of surviving neurons per 100 μm in the hippocampal CA1 region was counted under a microscope.

[3] = test system: mouse cerebral cortex primary neurons; test: Dead neurons (propidium iodide dye-exclusion) in neurons incubated with activated microglia conditioned medium; format: cell-based; settings: 24 h
Method: as §1
In addition, mouse cerebral cortex primary neurons were prepared from the cerebral cortices of C57BL/6J mice at embryonic 17th day, and were plated on poly-ethyleneimine (PEI)-coated cover slips. […]
(§3) The various neurons obtained as above were cultured for 24 hours, then, neurons in each well were measured for both the number of neurons with neuritic beading degeneration and the number of dead neurons. […] The ratio of neurons with neuritic beading degeneration was calculated as a percentage of total neurons. Note that neurons in duplicate wells were assessed blindly in three independent trials. In addition, the number of dead neurons was assessed by the dye-exclusion method with propidium iodide (PI). […] The ratio of dead neurons was calculated as a percentage of PI-positive cells among total neurons.

[4] = test system: mouse cerebral cortex primary neurons; test: Neuritic beading degeneration in neurons incubated with activated microglia conditioned medium; format: cell-based; settings: for number of neurons with neuritic beading degeneration: 24 h
Method: as §1
In addition, mouse cerebral cortex primary neurons were prepared from the cerebral cortices of C57BL/6J mice at embryonic 17th day, and were plated on poly-ethyleneimine (PEI)-coated cover slips. Neurons were used at 10th to 13th culture day (Takeuchi et al. Neuritic beading induced by activated microglia is an early feature of neuronal dysfunction toward neuronal death by inhibition of mitochondrial respiration and axonal transport. J. Biol. Chem. 280, 10444-10454 (2005)).
as §2
Neurons in a 24-well plate (5×10^4 cells/well) were incubated with 500 μl of conditioned medium of microglia activated as above. […]
as §3

connexin-32 (C×32) = test: Microglial cell surface expression of connexin-32 by flow cytometry; format: cell-based, mouse; settings: microglia stimulated with 100 ng/ml TNF-α, 24 h
Chain of connexin-32 (C×32) (P28230 whole entry): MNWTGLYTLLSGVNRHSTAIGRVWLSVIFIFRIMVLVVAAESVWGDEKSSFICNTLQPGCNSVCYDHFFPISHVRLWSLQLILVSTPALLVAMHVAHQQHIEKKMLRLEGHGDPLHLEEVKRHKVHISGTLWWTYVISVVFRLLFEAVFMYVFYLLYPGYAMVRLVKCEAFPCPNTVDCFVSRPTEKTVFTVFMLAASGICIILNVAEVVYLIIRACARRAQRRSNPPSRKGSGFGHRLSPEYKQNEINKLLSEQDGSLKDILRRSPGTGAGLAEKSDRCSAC
Method: In the present example, an analysis of LPS- or TNF-α-stimulated microglial cell surface expression of connexin-32 (C×32), which is a major constitutive component of gap junction, was carried out with a flow cytometer. The preparation of microglia was carried out similarly to Example 1, and microglia activation was carried out similarly to Example 4. To Detect C×32 anti-mouse C×32 antibody (manufactured by Chemicon) was used.

[5] = test system: mouse cerebral cortex primary neurons; test: Neuronal intracellular ATP concentration, chemiluminescent method; format: cell-based; settings: conditioned medium of microglia treated with 100 ng/ml TNF-α; 24 h
Method: (§4) In the present example, the amount of glutamate released from microglia stimulated with various cytokines, intracellular ATP concentration and mitochondrial damage in neurons incubated with conditioned medium were measured. […] The evaluations were carried out by the following methods.
After incubation of the various neurons obtaine for 24 hours as above, intracellular ATP in each neuronal culture well was measured using AposSENSOR Cell Viability Assay Kit (manufactured by Bio Vision) according to the protocol thereof, by the chemiluminescent method. ATP concentration was calculated as a percentage of control.

[6] = test system: mouse cerebral cortex primary neurons; test: Neuronal mitochondrial damage, MTS assay; format: cell-based; settings: conditioned medium of microglia treated with 100 ng/ml TNF-α; 24 h
Method: as §4
After incubation for 24 hours as above, the extent of neuronal mitochondria damage in each neuronal culture well was measured using CellTiter96 Aqueous One Solution assay (manufactured by Promega) according to the protocol, performing the MTS method, measuring the absorption at 490 nm in a multiplate reader. Note that the assays were carried out in six independent trials.

[7] = 1 mM DON with activated microglia conditioned medium
[8] = DON1: 1.6 mg/kg i.p. every other day
[9] = DON 0.016, 0.16, 1.6 mg/kg i.p. every other day
[10] = 100 μM CBX with activated microglia conditioned medium
[11] = CBX1/10: 2 mg/kg i.p. every other day
[12] = CBX 0.2, 2, 20 mg/kg i.p. every other day

[N-]=[N+]=CC(=O)CC[C@H](N)C(=O)O [DON, 6-diazo-5-oxo-L-norleucine]
extracellular glutamate concentration (activated microglia; [7]): reduced to the control level | EAE clinical symptoms (clinical score course, FIG. 17) ([1]; DON 0.016, 0.16, 1.6 mg/kg i.p. every other day from day of immunization): inhibited | EAE onset day (EAE clinical score becomes 1 or greater) [1, 8]: significantly delayed | number of severe sick days (EAE clinical score four or greater) [1, 8]: significantly reduced | delayed neuronal cell death (micrographs of hippocampal CA1, FIG. 15) ([2]; DON 0.016, 0.16, 1.6 mg/kg body weight i.p. every other day from day of ischemia): clearly inhibited | dose dependence of decrease in neuronal death [2, 9]: dose-dependent manner | number of surviving neurons per 100 μm in the hippocampal CA1 region [2, 9]: significantly protected | number of dead neurons [3, 7]: inhibitory action | number of neurons with neuritic beading degeneration [4, 7]: inhibitory action

TNF-α
glutamate concentration in neuron culture medium (activated microglia; conditioned medium of microglia treated with 100 ng/ml TNF-α): significantly high concentration | expression of gap junction (C×32) onto the cell surface of microglia (connexin-32 (C×32)): augmented | neuronal intracellular ATP concentration [5]: significantly low | extent of mitochondrial damage (MTS) [6]: significantly mild | ratio of neurons with neuritic beading degeneration as a percentage of total neurons ([4]; indirect stimulation: conditioned medium of microglia treated with 100 ng/ml cytokine for 24 h, neurons cultured 24 h): approximately 100%

CC1(C)[C@@H](OC(=O)CCC(=O)O)CC[C@]2(C)[C@H]3C(=O)C=C4[C@@H]5C[C@@](C)(C(=O)O)CC[C@]5(C)CC[C@@]4(C)[C@]3(C)CC[C@@H]12 [CBX, carbenoxolone disodium]
extracellular glutamate concentration (activated microglia; [10]): reduced to the control level | EAE clinical symptoms (clinical score course, FIG. 17) ([1]; CBX 0.2, 2, 20 mg/kg i.p. every other day from day of immunization): inhibited | peak clinical score [1, 11]: significantly decreased | EAE onset day (EAE clinical score becomes 1 or greater) [1, 11]: significantly delayed | number of severe sick days (EAE clinical score four or greater) [1, 11]: significantly reduced | delayed neuronal cell death (micrographs of hippocampal CA1, FIG. 15) ([2]; CBX 0.2, 2, 20 mg/kg body weight i.p. every other day from day of ischemia): clearly inhibited | dose dependence of decrease in neuronal death [2, 12]: dose-dependent manner | number of surviving neurons per 100 μm in the hippocampal CA1 region [2, 12]: significantly protected | number of dead neurons [3, 10]: inhibitory action | number of neurons with neuritic beading degeneration [4, 10]: inhibitory action
